Several values for one entry are separate records, joined by “and”; a condition that tells them apart may be missing. Equal entries are not always repeated. After the bases stand the sugars from the 5' end (letter, count) and the backbone: PS all phosphorothioate, else s phosphorothioate and o phosphodiester by linkage. Methylation of C is not given here. e = 2'-O-(2-methoxyethyl) (MOE); k = constrained ethyl (cEt); d = 2'-deoxy (DNA)
These sequences were tested against IRF4. Settings: ASO, MM.1R, 0.0625 µM.

Sequence | target mRNA inhibition [%]
TGGTATTTTTCCGTTC (sugars k3 d10 k3, PS) | 6
TGGTTGGCTGGTCTTT (sugars k3 d10 k3, PS) | 6

Same assay, conditions: ASO, MM.1R, 0.074 µM

Sequence | target mRNA inhibition [%]
TCTATAGTGTTCCAGG (sugars kkdddddddddekeke, PS) | 5
TGGGACATTGGTACGG (sugars k3 d10 k3, PS) | 4
TGGTATTTTTCCGTTC (sugars k3 d10 k3, PS) | 13

Same assay, conditions: ASO, MM.1R, 0.222 µM

Sequence | target mRNA inhibition [%]
TCTATAGTGTTCCAGG (sugars kkdddddddddekeke, PS) | 17
TGGGACATTGGTACGG (sugars k3 d10 k3, PS) | 2
TGGTATTTTTCCGTTC (sugars k3 d10 k3, PS) | 6

Same assay, conditions: ASO, MM.1R, 0.25 µM

Sequence | target mRNA inhibition [%]
TGGTATTTTTCCGTTC (sugars k3 d10 k3, PS) | 20
TGGTTGGCTGGTCTTT (sugars k3 d10 k3, PS) | 40

Same assay, conditions: ASO, MM.1R, 0.666 µM

Sequence | target mRNA inhibition [%]
TCTATAGTGTTCCAGG (sugars kkdddddddddekeke, PS) | 37
TGGGACATTGGTACGG (sugars k3 d10 k3, PS) | 13
TGGTATTTTTCCGTTC (sugars k3 d10 k3, PS) | 24

Same assay, conditions: ASO, MM.1R, 1 µM

Sequence | target mRNA inhibition
TCACTACCTGCAGCCA (sugars k3 d10 k3, PS) | 6%
TCAGAATGTTTCGACA (sugars k3 d10 k3, PS) | 6%
TCAGTTACTCACGAGC (sugars k3 d10 k3, PS) | -3%
TCATGTAAAGTCTGCT (sugars k3 d10 k3, PS) | 21%
TCCAAAGGGTTCAGTG (sugars k3 d10 k3, PS) | 7%
TCCACTACCATATTGG (sugars k3 d10 k3, PS) | -29%
TCCGAGCTCGGCCCCC (sugars k3 d10 k3, PS) | -10%
TCCTATTATAGAGCAT (sugars k3 d10 k3, PS) | 3%
TCCTCCACTACCATAT (sugars k3 d10 k3, PS) | -13%
TCCTGTAACGCACCCG (sugars k3 d10 k3, PS) | -13%
TCGAGATCATAGTGCA (sugars k3 d10 k3, PS) | 29%
TCTAACAGATAACGAG (sugars k3 d10 k3, PS) | -3%
TCTATAGTGTTCCAGG (sugars k2 d9 e3 k2, PS) | 50%
TCTATAGTGTTCCAGG (sugars kkdddddddddekeke, PS) | 56% and 50%
TCTGGATGAGCTTACA (sugars k3 d10 k3, PS) | 14%
TCTTTAAAATATCGCC (sugars k3 d10 k3, PS) | -45%

Sequence | target mRNA inhibition
TGACACAGGAGCCGCT (sugars k3 d10 k3, PS) | 15%
TGAGGCATACAGTGTG (sugars k3 d10 k3, PS) | 18%
TGATGTGATAGCTGAG (sugars k3 d10 k3, PS) | 59%
TGATGTGATAGCTGAG (sugars kkdddddddddkekek, PS) | -2%
TGCTCACTAAGCTTGA (sugars k3 d10 k3, PS) | 12%
TGCTTGAGGTTTTCCT (sugars kkkdddddddddkeke, PS) | 35%
TGGAAACGAGAACGCA (sugars k3 d10 k3, PS) | -7%
TGGCGAGTGGCGGGTA (sugars k3 d10 k3, PS) | -18%
TGGCTGATAATTAATC (sugars k3 d10 k3, PS) | -5%
TGGGATTATATACTGG (sugars kdddddddddkekeke, PS) | 40%
TGGGATTATATACTGG (sugars kkdddddddddekeke, PS) | 63%
TGGGATTATATACTGG (sugars kkdddddddddkdkdk, PS) | 25%
TGGGATTATATACTGG (sugars kkdddddddddkekek, PS) | 42%
TGGTATTTTTCCGTTC (sugars k3 d10 k3, PS) | 39%
TGGTTGGCTGGTCTTT (sugars k3 d10 k3, PS) | 88% and 69%
TGGTTGGCTGGTCTTT (sugars kddddddddddkekek, PS) | 9%

Same assay, conditions: ASO, MM.1R, 2 µM

Sequence | target mRNA inhibition [%]
TCTATAGTGTTCCAGG (sugars kkdddddddddekeke, PS) | 68
TGGGACATTGGTACGG (sugars k3 d10 k3, PS) | 34
TGGTATTTTTCCGTTC (sugars k3 d10 k3, PS) | 51

Same assay, conditions: ASO, MM.1R, 4 µM

Sequence | target mRNA inhibition [%]
TGGTATTTTTCCGTTC (sugars k3 d10 k3, PS) | 73
TGGTTGGCTGGTCTTT (sugars k3 d10 k3, PS) | 89

Same assay, conditions: ASO, SK-MEL-28, 4 µM

Sequence | target mRNA inhibition
TCACAGAGCCAACTTA (sugars k3 d10 k3, PS) | -12%
TCACGAGCACCTCAGA (sugars k3 d10 k3, PS) | 36%
TCACGCAGTGCACCTG (sugars k3 d10 k3, PS) | 46%
TCAGAATTTAGTTAGT (sugars k3 d10 k3, PS) | 33%
TCAGACAGTGCGCCCC (sugars k3 d10 k3, PS) | 26%
TCAGATGTCACTGATT (sugars k3 d10 k3, PS) | 35%
TCAGCAAGTGTCTTCC (sugars k3 d10 k3, PS) | 66%
TCAGTTTGTGAAGCAT (sugars k3 d10 k3, PS) | 75% and 89%
TCATAGCTAGTTCATT (sugars k3 d10 k3, PS) | 52%
TCCAAACCTTAAGCTA (sugars k3 d10 k3, PS) | 37%
TCCACCTGCATCGAGA (sugars k3 d10 k3, PS) | 47%
TCCAGAAAATTCAGCT (sugars k4 d8 k4, PS) | 26%
TCCAGGAAAGGCCAAG (sugars k3 d10 k3, PS) | 49%
TCCAGGTGGCTCAGCA (sugars k4 d8 k4, PS) | 34%
TCCCACGAAGGGCAGT (sugars k3 d10 k3, PS) | 6%
TCCCTTAGGATAATAT (sugars k3 d10 k3, PS) | 48%
TCCGGCTTGTCGATGC (sugars k3 d10 k3, PS) | 41%
TCCTATGCTGAACCCC (sugars k3 d10 k3, PS) | 36%
TCCTCAAAGTCATTGC (sugars k4 d8 k4, PS) | 10%
TCCTCTGGCCATTGTC (sugars k3 d10 k3, PS) | 41%
TCGCATAGAGCCCGTC (sugars k3 d10 k3, PS) | 57%
TCGCATCCAGACCCTT (sugars k3 d10 k3, PS) | 28%
TCGGAACTTTCCTTTA (sugars k3 d10 k3, PS) | 33%
TCGGAGCTGAGGGCAG (sugars k3 d10 k3, PS) | 18%
TCTAAAGTCCCATCGA (sugars k3 d10 k3, PS) | 31%

Sequence | target mRNA inhibition
TCTAATAAATGTGCTC (sugars k3 d10 k3, PS) | 44%
TCTAATCCACAATCAG (sugars k3 d10 k3, PS) | 41%
TCTACAGAACACAAGA (sugars k3 d10 k3, PS) | -8%
TCTACCTACTCCATCA (sugars k3 d10 k3, PS) | 47%
TCTCCCACACCAGCCC (sugars k4 d8 k4, PS) | 25%
TCTCCGCCTCGGCCGC (sugars k3 d10 k3, PS) | 41%
TCTGACAAGAACTGCT (sugars k3 d10 k3, PS) | 12%
TCTGAGACTACACCTA (sugars k3 d10 k3, PS) | 27%
TCTGAGAGCAAATTGA (sugars k3 d10 k3, PS) | 29%
TCTGAGATGTCCAGCT (sugars k3 d10 k3, PS) | 45%
TCTGAGGGTCTGGAAA (sugars k3 d10 k3, PS) | 9%
TCTTTGGGATTCTATA (sugars k3 d10 k3, PS) | 60%
TGAACCCTTCATCAGA (sugars k3 d10 k3, PS) | 48%
TGAAGCAACACGGGAA (sugars k3 d10 k3, PS) | 60%
TGAAGTGCTGTGTGGG (sugars k3 d10 k3, PS) | 57%
TGACTCCATGAGGTTT (sugars k3 d10 k3, PS) | 65%
TGATAAGGCACTACTT (sugars k3 d10 k3, PS) | 35%
TGATAGCTGAGCTGAT (sugars k3 d10 k3, PS) | 37%
TGATGTATACCAACGA (sugars k3 d10 k3, PS) | 62% and 87%
TGCAAAACCAGTACAG (sugars k3 d10 k3, PS) | 28%
TGCAAGCCTCATTCAC (sugars k3 d10 k3, PS) | 42%
TGCACTCGCGCAAAGG (sugars k3 d10 k3, PS) | 28%
TGCATAACACGGTGTT (sugars k3 d10 k3, PS) | 38%
TGCATCTATAAGATGT (sugars k3 d10 k3, PS) | 32%
TGCCACAACTCTCGCC (sugars k3 d10 k3, PS) | 31%

Sequence | target mRNA inhibition
TGCCGCTGTCGATCTG (sugars k3 d10 k3, PS) | 32%
TGCCTCTGTTAGGTGA (sugars k3 d10 k3, PS) | 34%
TGCGAATGTGCCTTGT (sugars k3 d10 k3, PS) | 43%
TGCTGAACCCCACAGG (sugars k3 d10 k3, PS) | 33%
TGGAAACCAGCCCTTG (sugars k3 d10 k3, PS) | 48%
TGGAATCTTGGCAGGG (sugars k3 d10 k3, PS) | 40%
TGGAGAAACGAGCCAG (sugars k3 d10 k3, PS) | 38%
TGGCAACCATTTTCAC (sugars k4 d8 k4, PS) | 7%
TGGCACAATTCTCTGA (sugars k3 d10 k3, PS) | 13%
TGGCACAGACATACCT (sugars k3 d10 k3, PS) | 38%
TGGCAGGGAGCGGCCG (sugars k3 d10 k3, PS) | 11%
TGGCCCTTCTCTCACG (sugars k3 d10 k3, PS) | 11%
TGGCTCATGGACATCT (sugars k3 d10 k3, PS) | 32%
TGGGAATCCTTAATTA (sugars k3 d10 k3, PS) | 12%
TGGGACATTGGTACGG (sugars k3 d10 k3, PS) | 69%
TGGGAGTAATAGTAAA (sugars k3 d10 k3, PS) | 16%
TGGGTACATGGCAGTG (sugars k3 d10 k3, PS) | 74%
TGGTAACAATACTGTA (sugars k3 d10 k3, PS) | 65%
TGGTAGAATGTGATAT (sugars k3 d10 k3, PS) | 43%
TGGTAGGTAGGCACCT (sugars k3 d10 k3, PS) | 35%
TGGTATTTTTCCGTTC (sugars k3 d10 k3, PS) | 69%
TGGTGGGTCCTGGCAG (sugars k3 d10 k3, PS) | 23%
TGTAAATGAGTCGGTC (sugars k3 d10 k3, PS) | 69%

— the OligoGym collection
